These are literature values, as cited in patent EP0426167A2, “Antitumor substance, process for preparing the same, and pharmaceutical composition containing the same” (MEIJI SEIKA KAISHA LTD., priority 1989, dated 1991).

For data set [1], the system named is P388 tumor cells. To be noted: result in words; cited from earlier work.
The test system of data set [2] is P388 tumor cells. The settings on record: result in words; cited from earlier work. This is another data set of the same source.
The conditions of data set [3]: mouse, i.p.; cited from earlier work.

Regarding `Cc1cc2c(c3oc(C4(C)OC4C4OC4C)cc(=O)c13)C(=O)c1c(ccc(C3CC(C)(N(C)C)C(O)C(C)O3)c1O)C2=O` (stereo not drawn) [SF2587 substance], the “inhibitory activity on P388 tumor cells” value with P388 tumor cells [1] is “considerable inhibitory activity”. Further, the “therapeutic effects in mice transplanted with P388 tumor cells” value with P388 tumor cells [2] is reported as “excellent therapeutic, effects”. Besides, in data set [3], the LD₅₀ was 0.5 to 1 mg/kg.
